Measured values as given in US4269842A, “Method for treating rhinoviral complaints” (Rhone-Poulenc Industries, priority 1979, dated 1981).
≈ marks a conversion by molar mass, not a printed value.

What was measured:
in vitro = type: cell-based; conditions: human, mcr-5 fibroblasts
[1] = system: Rhinovirus type 1 A (R 2060 strain); assay: Inhibition of cytopathogenic effect of rhinovirus type 1 A in human fibroblast cultures; type: cell-based, human rhinovirus type 1 A; conditions: Enterovirus, 37° C., 3-4 days; for inhibition at 15 µg/mL: Fibroblast, at 15 μg/cm^3, human fibroblasts, read-out: Inhibition of cytopathogenic effect, Rhinovirus type 1 A (printed in minimum inhibitory concentration column); for MIC: human fibroblasts, prevention of cytopathogenic effect, read-out: Minimum inhibitory concentration, Rhinovirus type 1 A
Description: (§1) The type 1 A (R 2060 strain) and type 1 B (R 1112 strain) human rhinoviruses have the property of forming foci of necrosis (cytopathogeniceffect) on single-layer cell cultures. The compounds of the formula (I), which prevent the formation of these foci, have been selected as active substances.
(§2) Decreasing concentrations of the same solution or suspension of the compound under test are added to fresh identical cell cultures, the highest concentration being the maximum non-cytotoxic concentration. About one hour after the compounds have been added, the cultures are inoculated with 0.2 cm^3 of a suitably diluted suspension of virus (in isotonic phosphate buffer), which is capable of destroying about 75% of cells (cytopathogenic effect). 5 Control cultures (without test compound) are also inoculated. All the cultures are then incubated at 37° C. in a "roller" tissue culture apparatus at the same time as 2 control cultures (without test compound or virus) which have received 0.2 cm^3 of isotonic phosphate buffer. 3-4 Days after the start of the experiment, the cytopathogenic effect of the virus is examined under a microscope. The active compounds are those which have prevented the appearance of the cytopathogenic effect, and those which have inhibited it by at least 50% are considered to be partially active.

[2] = system: Rhinovirus type 1 B (R 1112 strain); assay: Inhibition of cytopathogenic effect of rhinovirus type 1 B in human fibroblast cultures; type: cell-based, human rhinovirus type 1 B; conditions: Enterovirus, human fibroblasts, 37° C., 3-4 days, prevention of cytopathogenic effect, read-out: Minimum inhibitory concentration, Rhinovirus type 1 B
Description: as §1, §2

Row | MNTC (in vitro) [µg/mL] | Structure (SMILES) | inhibition at 15 µg/mL [1] [%] | MIC [2] [µg/mL] | MIC [1] [µg/mL]
1 | 15 | Clc1ncccc1N=C1SC[C@@H]2Cc3ccccc3CN12 [Compound 2, (S)-3-[(2-chloropyrid-3-yl)-imino]-1,5,10,10a-tetrahydrothiazolo[3,4-b]isoquinoline] | ≥ 50 | 0.016 (≈ 0.0507 µM) | 
2 | > 60 | c1ccc2c(c1)C[C@H]1CSC(=Nc3cccc4cnccc34)N1C2 [Compound 5] |  | 0.7 (≈ 2.11 µM) | 0.7 (≈ 2.11 µM)
3 | 15 | COc1ncccc1N=C1SC[C@@H]2Cc3ccccc3CN12 [Compound 4, (S)-3-[(2-methoxypyrid-3-yl)-imino]-1,5,10,10a-tetrahydrothiazolo[3,4-b]isoquinoline] | ≥ 50 | 1.5 (≈ 4.82 µM) | 
4 | 15 | Fc1ncccc1N=C1SC[C@@H]2Cc3ccccc3CN12 [Compound 3, (S)-3-[(2-fluoropyrid-3-yl)-imino]-1,5,10,10a-tetrahydrothiazolo[3,4-b]-isoquinoline] |  | 0.016 (≈ 0.0534 µM) | 15 (≈ 50.1 µM)
5 | > 30 | c1cncc(N=C2SC[C@@H]3Cc4ccccc4CN23)c1 [Compound 1] |  | 0.15 (≈ 0.533 µM) | 15 (≈ 53.3 µM)
6 | 30 | Cc1cc2c(N=C3SC[C@@H]4Cc5ccccc5CN34)cccc2cn1 [Compound 6, (S)-3-(3-methylisoquinol-5-yl)-imino-1,5,10,10a-tetrahydrothiazolo[3,4-b]isoquinoline] |  | 1.5 (≈ 4.34 µM) | 1.5 (≈ 4.34 µM)
